ChEMBL document CHEMBL1201862, “PubChem BioAssay data set” (2004)
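Cells were grown in 96-well plates and exposed to each compound for 48 hours at five concentrations; endpoints were interpolated linearly between bracketing concentrations, or set to the highest concentration if not reached. The concentration for 50% growth inhibition is given as GI50.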 Active and inactive are the calls of the source. No stated cut-off is given here; in the data, active = GI50 up to about 1.1 µM and inactive = higher. Where a SMILES comes first, the peptide text is derived from it. [ ]: non-standard residue; d: D form. Ac5c = NC1(C(=O)O)CCCC1

Legend:
Assay in all cases: NCI tumour cell line growth inhibition, 48 h
M14 = tested on: M14
BT-549 = tested on: BT-549
UO-31 = tested on: UO-31
SF-268 = tested on: SF-268
SK-MEL-2 = tested on: SK-MEL-2
U-251 = tested on: U-251
TK-10 = tested on: TK-10
NCI-H23 = tested on: NCI-H23
786-0 = tested on: 786-0
RXF 393 = tested on: RXF 393
PC-3 = tested on: PC-3
OVCAR-3 = tested on: OVCAR-3
CCRF-CEM = tested on: CCRF-CEM
MDA-MB-435 = tested on: MDA-MB-435
SK-OV-3 = tested on: SK-OV-3
T47D = tested on: T47D
HOP-62 = tested on: HOP-62
MDA-N = tested on: MDA-N
MCF7 = tested on: MCF7

Structure (SMILES)	GI50 (M14)	GI50 (BT-549)	GI50 (UO-31)	GI50 (SF-268)	GI50 (SK-MEL-2)	GI50 (U-251)	GI50 (TK-10)	GI50 (NCI-H23)	GI50 (786-0)	GI50 (RXF 393)	GI50 (PC-3)	GI50 (OVCAR-3)	GI50 (CCRF-CEM)	GI50 (MDA-MB-435)	GI50 (SK-OV-3)	GI50 (T47D)	GI50 (HOP-62)	GI50 (MDA-N)	GI50 (MCF7)
Cc1noc(NC(=O)Nc2ccccc2F)c1C#N	> 24.4 µM (inactive)	> 100 µM (inactive)	0.918 µM (active)	12.4 µM (inactive)	> 39.8 µM (inactive)	21.5 µM (inactive)	> 27.2 µM (inactive)	> 81.3 µM (inactive)	7.69 µM (inactive)	> 66.8 µM (inactive)	> 21.5 µM (inactive)	64.3 µM (inactive)	70.6 µM (inactive)	> 100 µM (inactive)	> 100 µM (inactive)	18.3 µM (inactive)	22.3 µM (inactive)		
Nn1c(CCCCCCCCc2nnc(COc3c(O)ccc4ccccc34)n2N)nnc1COc1c(O)ccc2ccccc12	> 100 µM (inactive)	> 100 µM (inactive)	> 100 µM (inactive)	> 100 µM (inactive)	> 100 µM (inactive)	> 100 µM (inactive)	> 100 µM (inactive)	> 100 µM (inactive)	99.3 µM (inactive)	84.3 µM (inactive)	> 100 µM (inactive)			> 100 µM (inactive)	> 100 µM (inactive)			> 100 µM (inactive)	> 100 µM (inactive)
CCCCc1ccc(C#CC#Cc2ccc(CCCC)s2)s1	> 100 µM (inactive)		> 100 µM (inactive)	> 100 µM (inactive)		> 100 µM (inactive)	> 100 µM (inactive)	> 100 µM (inactive)	> 100 µM (inactive)	> 100 µM (inactive)		> 100 µM (inactive)	4.39 µM (inactive)	> 100 µM (inactive)	> 100 µM (inactive)	> 100 µM (inactive)	> 100 µM (inactive)	> 100 µM (inactive)	> 100 µM (inactive)
CC(C)Oc1cccc(N2C(NCCc3c[nH]c4ccccc34)=Nc3ccncc3S2(=O)=O)c1	10.4 µM (inactive)	61.1 µM (inactive)	81.8 µM (inactive)	15.7 µM (inactive)	20.8 µM (inactive)	17.9 µM (inactive)	19.2 µM (inactive)	33.1 µM (inactive)	2.09 µM (inactive)	3.46 µM (inactive)	6.4 µM (inactive)	11.7 µM (inactive)	6.15 µM (inactive)	25.8 µM (inactive)	> 100 µM (inactive)	7.21 µM (inactive)	> 100 µM (inactive)		4.73 µM (inactive)
OC(c1cc2ccccc2o1)c1cc2ccccc2s1 (configuration not stated)	> 10 µM (inactive)		> 10 µM (inactive)	> 10 µM (inactive)	> 10 µM (inactive)	> 10 µM (inactive)	> 10 µM (inactive)	> 10 µM (inactive)	> 10 µM (inactive)	> 10 µM (inactive)	8.57 µM (inactive)	> 10 µM (inactive)	> 10 µM (inactive)	3.78 µM (inactive)	> 10 µM (inactive)	> 10 µM (inactive)	> 10 µM (inactive)	3.94 µM (inactive)	9.44 µM (inactive)
CC1OC(n2cnc3c(N)nc(Cl)nc32)C(C)(O)C1O (configuration not stated)	> 25 µM (inactive)	> 25 µM (inactive)	16.7 µM (inactive)	> 25 µM (inactive)	> 25 µM (inactive)		> 25 µM (inactive)	> 25 µM (inactive)	> 25 µM (inactive)	> 25 µM (inactive)		> 25 µM (inactive)	> 25 µM (inactive)	> 25 µM (inactive)	> 25 µM (inactive)	> 25 µM (inactive)	> 25 µM (inactive)	> 25 µM (inactive)	> 25 µM (inactive)
C/C(=C\COP(=O)(O)OP(=O)(O)O)CC/C=C(\C)CNc1ccc([N+](=O)[O-])cc1	> 100 µM (inactive)		> 100 µM (inactive)	> 100 µM (inactive)	> 100 µM (inactive)	> 100 µM (inactive)	> 100 µM (inactive)	> 100 µM (inactive)	> 100 µM (inactive)	> 100 µM (inactive)	> 100 µM (inactive)	> 100 µM (inactive)	> 100 µM (inactive)	> 100 µM (inactive)	> 100 µM (inactive)	> 100 µM (inactive)	> 100 µM (inactive)		> 100 µM (inactive)
COCn1cnc2c(=O)n(-c3ccc(C)cc3)c(=S)n(-c3ccc(C)cc3)c21	> 100 µM (inactive)	> 100 µM (inactive)	38.6 µM (inactive)	> 100 µM (inactive)	> 100 µM (inactive)	> 100 µM (inactive)	> 100 µM (inactive)	> 100 µM (inactive)	> 100 µM (inactive)	78.3 µM (inactive)	> 100 µM (inactive)	> 100 µM (inactive)	> 100 µM (inactive)	> 100 µM (inactive)	> 100 µM (inactive)	> 100 µM (inactive)	> 100 µM (inactive)		> 100 µM (inactive)
Cc1c(/C=N\NC(=S)N2CCN(C(=S)N/N=C\c3c(C)n(C)n(-c4ccccc4)c3=O)CC2)c(=O)n(-c2ccccc2)n1C	57 µM (inactive)	44 µM (inactive)	> 100 µM (inactive)	> 100 µM (inactive)	13.1 µM (inactive)	29.1 µM (inactive)	5.7 µM (inactive)	50.9 µM (inactive)	33.7 µM (inactive)	67.9 µM (inactive)	32.9 µM (inactive)	51.9 µM (inactive)		4.52 µM (inactive)	> 100 µM (inactive)	36.1 µM (inactive)	37.2 µM (inactive)		
CCOC(=O)c1c(NC(=O)OC)c(C#N)c2n1CCCCC2	> 100 µM (inactive)	> 100 µM (inactive)	> 100 µM (inactive)	> 100 µM (inactive)	> 100 µM (inactive)	> 100 µM (inactive)	> 100 µM (inactive)	> 100 µM (inactive)	> 100 µM (inactive)	> 100 µM (inactive)	> 100 µM (inactive)		> 100 µM (inactive)	> 100 µM (inactive)	> 100 µM (inactive)	> 100 µM (inactive)	> 100 µM (inactive)		> 100 µM (inactive)
Nc1nc2c(ncn2Cc2ccccc2CCO)c(=O)[nH]1	> 100 µM (inactive)		> 100 µM (inactive)	> 100 µM (inactive)	> 100 µM (inactive)	> 100 µM (inactive)	> 100 µM (inactive)	> 100 µM (inactive)	> 100 µM (inactive)	> 100 µM (inactive)		> 100 µM (inactive)	> 100 µM (inactive)		> 100 µM (inactive)		> 100 µM (inactive)		
CC1(C#N)CC(C)(C)C(/C=C2/CC(C)(C)C(/C=C3/OC(=N)CC3(C)C)=N2)=N1 (configuration not stated)	28.9 µM (inactive)			24.3 µM (inactive)	38.7 µM (inactive)	38.5 µM (inactive)	31 µM (inactive)	22.8 µM (inactive)	24.9 µM (inactive)	15.2 µM (inactive)	30.6 µM (inactive)	20 µM (inactive)	32.4 µM (inactive)	21.7 µM (inactive)	20.4 µM (inactive)	22.7 µM (inactive)	23.8 µM (inactive)	31.4 µM (inactive)	12.3 µM (inactive)
O=C1CCCC1C(O)(C(F)(F)F)C(F)(F)F (configuration not stated)	> 100 µM (inactive)		> 100 µM (inactive)	> 100 µM (inactive)	> 100 µM (inactive)	> 100 µM (inactive)	> 100 µM (inactive)	> 100 µM (inactive)	> 100 µM (inactive)	> 100 µM (inactive)	> 100 µM (inactive)	> 100 µM (inactive)	> 100 µM (inactive)	> 100 µM (inactive)		> 100 µM (inactive)	> 100 µM (inactive)	> 100 µM (inactive)	> 100 µM (inactive)
COc1c(Br)cc(/C=C(\C#N)c2cccnc2)cc1Br	43.4 µM (inactive)	30.5 µM (inactive)	> 100 µM (inactive)	67.6 µM (inactive)	96.6 µM (inactive)	36.3 µM (inactive)	61.7 µM (inactive)	32.7 µM (inactive)	> 100 µM (inactive)	51.5 µM (inactive)	45.4 µM (inactive)	99.1 µM (inactive)	> 100 µM (inactive)		56.9 µM (inactive)		54.8 µM (inactive)	> 100 µM (inactive)	35.8 µM (inactive)
Cc1nnc2sc(-c3ccc(N)cc3)nn12	> 100 µM (inactive)		> 100 µM (inactive)	> 100 µM (inactive)	> 100 µM (inactive)		> 100 µM (inactive)	> 100 µM (inactive)	> 100 µM (inactive)	> 100 µM (inactive)	> 100 µM (inactive)	> 100 µM (inactive)	> 100 µM (inactive)	> 100 µM (inactive)	> 100 µM (inactive)	> 100 µM (inactive)	> 100 µM (inactive)		> 100 µM (inactive)
COC(=O)C1(NC(=O)C(C)NC(=O)C(CCCCN)NC(=O)C(CC(C)C)NC(C)=O)CCCC1 (configuration not stated) (Ac-LKA[Ac5c]-OMe; configuration not given here)	> 100 µM (inactive)		> 100 µM (inactive)	> 100 µM (inactive)			> 100 µM (inactive)		> 100 µM (inactive)		> 100 µM (inactive)		> 100 µM (inactive)	> 100 µM (inactive)	> 100 µM (inactive)	> 100 µM (inactive)	> 100 µM (inactive)	> 100 µM (inactive)	> 100 µM (inactive)
